Assay results: ChEMBL document CHEMBL5678818, “Discovery of potent SOS1 inhibitors that block RAS activation via disruption of the RAS-SOS1 interaction” (Proc Natl Acad Sci U S A, 2019)

Experiments:
[1] = target: Serine/threonine-protein kinase WNK2 (Homo sapiens) (UniProt Q9Y3S1); assay: Inhibition of WNK2 (unknown origin) assessed as residual activity at 1000 nM by KINOMEscan analysis relative to control
[2] = target: T1, Mitogen-activated protein kinase 12 (Homo sapiens) (UniProt P53778); assay: Inhibition of p38-gamma (unknown origin) assessed as residual activity at 100 nM by KINOMEscan analysis relative to control
T1 sequence (whole entry): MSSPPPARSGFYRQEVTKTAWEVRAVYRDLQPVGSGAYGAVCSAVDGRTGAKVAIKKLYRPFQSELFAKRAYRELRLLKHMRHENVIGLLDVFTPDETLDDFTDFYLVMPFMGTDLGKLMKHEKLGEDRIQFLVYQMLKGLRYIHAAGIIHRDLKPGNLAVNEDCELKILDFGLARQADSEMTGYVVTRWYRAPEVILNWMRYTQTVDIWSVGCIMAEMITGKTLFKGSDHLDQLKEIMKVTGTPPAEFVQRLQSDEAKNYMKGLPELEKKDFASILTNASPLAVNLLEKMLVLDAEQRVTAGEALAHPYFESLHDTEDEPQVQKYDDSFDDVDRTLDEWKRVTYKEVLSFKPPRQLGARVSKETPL

[3] = tested on: Tyrosine-protein kinase ABL1 (Homo sapiens), P00519 [T315I]; assay: Inhibition of nonphosphorylated ABL1 T315I mutant (unknown origin) assessed as residual activity at 100 nM by KINOMEscan analysis relative to control
[4] = target: T2, Receptor-interacting serine/threonine-protein kinase 1 (Homo sapiens) (UniProt Q13546); assay: Inhibition of RIPK1 (unknown origin) assessed as residual activity at 100 nM by KINOMEscan analysis relative to control
T2 sequence (whole entry): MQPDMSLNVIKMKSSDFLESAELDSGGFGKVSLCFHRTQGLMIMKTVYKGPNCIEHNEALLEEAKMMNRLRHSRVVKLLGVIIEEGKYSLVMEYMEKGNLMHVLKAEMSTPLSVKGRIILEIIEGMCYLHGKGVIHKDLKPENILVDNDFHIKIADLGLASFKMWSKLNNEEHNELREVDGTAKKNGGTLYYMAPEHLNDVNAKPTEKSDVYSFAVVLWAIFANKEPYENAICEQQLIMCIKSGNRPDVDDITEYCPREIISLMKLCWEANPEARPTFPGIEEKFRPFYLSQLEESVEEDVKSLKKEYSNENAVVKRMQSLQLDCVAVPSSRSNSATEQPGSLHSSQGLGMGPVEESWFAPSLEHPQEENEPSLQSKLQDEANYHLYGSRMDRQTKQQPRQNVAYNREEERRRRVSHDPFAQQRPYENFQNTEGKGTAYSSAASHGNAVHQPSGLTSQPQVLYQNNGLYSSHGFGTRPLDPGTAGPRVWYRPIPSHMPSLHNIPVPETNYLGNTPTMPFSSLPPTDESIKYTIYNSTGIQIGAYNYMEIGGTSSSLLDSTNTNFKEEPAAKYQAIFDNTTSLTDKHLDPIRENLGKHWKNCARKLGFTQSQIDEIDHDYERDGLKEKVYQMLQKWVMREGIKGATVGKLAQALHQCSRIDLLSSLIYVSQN

[5] = target: T3, Serine/threonine-protein kinase Nek11 (Homo sapiens) (UniProt Q8NG66); assay: Inhibition of NEK11 (unknown origin) assessed as residual activity at 100 nM by KINOMEscan analysis relative to control
T3 sequence (whole entry): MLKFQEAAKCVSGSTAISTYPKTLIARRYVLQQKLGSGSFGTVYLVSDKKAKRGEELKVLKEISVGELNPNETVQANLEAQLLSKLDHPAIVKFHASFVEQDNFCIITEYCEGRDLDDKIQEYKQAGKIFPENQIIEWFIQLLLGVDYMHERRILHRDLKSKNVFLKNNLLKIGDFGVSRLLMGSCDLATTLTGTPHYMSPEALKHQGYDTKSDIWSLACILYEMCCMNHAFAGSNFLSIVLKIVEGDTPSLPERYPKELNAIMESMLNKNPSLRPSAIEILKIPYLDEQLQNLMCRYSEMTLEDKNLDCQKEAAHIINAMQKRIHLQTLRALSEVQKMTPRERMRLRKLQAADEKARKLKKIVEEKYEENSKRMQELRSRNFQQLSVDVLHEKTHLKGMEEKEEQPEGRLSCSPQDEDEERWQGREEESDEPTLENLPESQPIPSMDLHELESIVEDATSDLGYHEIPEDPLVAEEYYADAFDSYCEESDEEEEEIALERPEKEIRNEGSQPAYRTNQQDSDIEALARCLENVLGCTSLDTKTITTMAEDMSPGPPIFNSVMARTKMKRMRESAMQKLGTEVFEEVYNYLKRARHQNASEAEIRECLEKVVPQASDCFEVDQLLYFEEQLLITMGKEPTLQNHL

[6] = target: Serine/threonine-protein kinase PAK 3 (Homo sapiens) (UniProt O75914); assay: Inhibition of PAK3 (unknown origin) assessed as residual activity at 100 nM by KINOMEscan analysis relative to control
[7] = target: Serine/threonine-protein kinase PLK1 (Homo sapiens) (UniProt P53350); assay: Inhibition of PLK1 (unknown origin) assessed as residual activity at 100 nM by KINOMEscan analysis relative to control
Chain of Serine/threonine-protein kinase PLK1 (Homo sapiens) (P53350 whole entry): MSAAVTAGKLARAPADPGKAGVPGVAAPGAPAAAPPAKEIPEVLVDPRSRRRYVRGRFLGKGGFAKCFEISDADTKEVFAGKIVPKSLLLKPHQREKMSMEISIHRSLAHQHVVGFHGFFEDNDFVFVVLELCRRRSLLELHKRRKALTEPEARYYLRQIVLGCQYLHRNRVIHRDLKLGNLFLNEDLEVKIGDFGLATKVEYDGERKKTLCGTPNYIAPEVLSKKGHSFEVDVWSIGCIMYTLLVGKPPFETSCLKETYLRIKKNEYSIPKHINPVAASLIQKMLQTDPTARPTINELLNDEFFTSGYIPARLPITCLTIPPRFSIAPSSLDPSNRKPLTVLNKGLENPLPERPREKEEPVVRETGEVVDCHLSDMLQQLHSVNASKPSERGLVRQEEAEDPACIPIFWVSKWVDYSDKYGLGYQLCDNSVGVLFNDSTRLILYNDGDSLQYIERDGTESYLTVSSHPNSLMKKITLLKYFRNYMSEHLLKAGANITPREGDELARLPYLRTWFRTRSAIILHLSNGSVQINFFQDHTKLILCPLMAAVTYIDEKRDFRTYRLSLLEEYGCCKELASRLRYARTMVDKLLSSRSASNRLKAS

[8] = tested on: Mast/stem cell growth factor receptor Kit (Homo sapiens), P10721 [D816V]; assay: Inhibition of KIT D816V mutant (unknown origin) assessed as residual activity at 100 nM by KINOMEscan analysis relative to control
Chain of Mast/stem cell growth factor receptor Kit (Homo sapiens), P10721 [D816V] (P10721 whole entry D816V): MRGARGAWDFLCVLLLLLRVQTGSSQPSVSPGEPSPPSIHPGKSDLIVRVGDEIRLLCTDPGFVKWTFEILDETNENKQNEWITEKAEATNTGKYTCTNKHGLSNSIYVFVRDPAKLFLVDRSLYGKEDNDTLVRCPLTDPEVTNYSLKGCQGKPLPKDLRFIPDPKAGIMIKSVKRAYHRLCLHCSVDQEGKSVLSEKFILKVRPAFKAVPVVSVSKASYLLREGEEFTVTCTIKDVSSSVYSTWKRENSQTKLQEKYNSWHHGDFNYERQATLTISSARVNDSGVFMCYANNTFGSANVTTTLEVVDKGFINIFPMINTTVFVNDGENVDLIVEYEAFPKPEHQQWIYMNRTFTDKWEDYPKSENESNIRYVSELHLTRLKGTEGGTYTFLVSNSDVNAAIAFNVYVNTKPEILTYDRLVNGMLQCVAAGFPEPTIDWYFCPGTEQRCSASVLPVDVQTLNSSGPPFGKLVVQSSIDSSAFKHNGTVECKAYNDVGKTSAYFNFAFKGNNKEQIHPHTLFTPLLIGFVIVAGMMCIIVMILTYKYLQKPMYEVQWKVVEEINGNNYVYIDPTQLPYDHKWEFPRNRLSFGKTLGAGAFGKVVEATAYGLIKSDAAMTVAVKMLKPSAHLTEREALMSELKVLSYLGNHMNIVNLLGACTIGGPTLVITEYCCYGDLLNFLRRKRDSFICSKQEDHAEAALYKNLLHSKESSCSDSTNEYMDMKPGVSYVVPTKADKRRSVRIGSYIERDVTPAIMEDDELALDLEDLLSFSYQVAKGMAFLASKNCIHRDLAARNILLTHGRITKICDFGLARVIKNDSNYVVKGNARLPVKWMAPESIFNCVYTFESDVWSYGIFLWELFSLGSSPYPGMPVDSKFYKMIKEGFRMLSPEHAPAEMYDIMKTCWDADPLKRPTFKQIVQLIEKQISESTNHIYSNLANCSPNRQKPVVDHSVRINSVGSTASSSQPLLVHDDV

[9] = target: T4, Tyrosine-protein kinase TXK (Homo sapiens) (UniProt P42681); assay: Inhibition of TXK (unknown origin) assessed as residual activity at 100 nM by KINOMEscan analysis relative to control
T4 sequence (whole entry): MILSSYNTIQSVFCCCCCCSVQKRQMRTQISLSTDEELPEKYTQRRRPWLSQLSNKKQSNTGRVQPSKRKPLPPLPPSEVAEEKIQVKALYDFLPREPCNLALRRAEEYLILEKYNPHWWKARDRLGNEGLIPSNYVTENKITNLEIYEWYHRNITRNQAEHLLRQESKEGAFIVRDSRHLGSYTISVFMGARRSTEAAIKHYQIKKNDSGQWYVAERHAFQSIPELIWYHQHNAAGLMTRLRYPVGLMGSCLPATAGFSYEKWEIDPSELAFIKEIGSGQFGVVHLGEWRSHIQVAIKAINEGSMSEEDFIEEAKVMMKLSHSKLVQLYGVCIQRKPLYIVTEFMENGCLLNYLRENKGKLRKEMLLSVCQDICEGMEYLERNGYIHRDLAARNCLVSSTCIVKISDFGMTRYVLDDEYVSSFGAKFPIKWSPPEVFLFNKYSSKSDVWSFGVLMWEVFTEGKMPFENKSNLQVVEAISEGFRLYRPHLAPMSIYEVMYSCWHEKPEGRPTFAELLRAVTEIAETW

[10] = target: Phosphatidylinositol 4-kinase beta (Homo sapiens) (UniProt Q9UBF8); assay: Inhibition of PIK4CB (unknown origin) assessed as residual activity at 100 nM by KINOMEscan analysis relative to control
Chain of Phosphatidylinositol 4-kinase beta (Homo sapiens) (Q9UBF8 2-816 limits assumed): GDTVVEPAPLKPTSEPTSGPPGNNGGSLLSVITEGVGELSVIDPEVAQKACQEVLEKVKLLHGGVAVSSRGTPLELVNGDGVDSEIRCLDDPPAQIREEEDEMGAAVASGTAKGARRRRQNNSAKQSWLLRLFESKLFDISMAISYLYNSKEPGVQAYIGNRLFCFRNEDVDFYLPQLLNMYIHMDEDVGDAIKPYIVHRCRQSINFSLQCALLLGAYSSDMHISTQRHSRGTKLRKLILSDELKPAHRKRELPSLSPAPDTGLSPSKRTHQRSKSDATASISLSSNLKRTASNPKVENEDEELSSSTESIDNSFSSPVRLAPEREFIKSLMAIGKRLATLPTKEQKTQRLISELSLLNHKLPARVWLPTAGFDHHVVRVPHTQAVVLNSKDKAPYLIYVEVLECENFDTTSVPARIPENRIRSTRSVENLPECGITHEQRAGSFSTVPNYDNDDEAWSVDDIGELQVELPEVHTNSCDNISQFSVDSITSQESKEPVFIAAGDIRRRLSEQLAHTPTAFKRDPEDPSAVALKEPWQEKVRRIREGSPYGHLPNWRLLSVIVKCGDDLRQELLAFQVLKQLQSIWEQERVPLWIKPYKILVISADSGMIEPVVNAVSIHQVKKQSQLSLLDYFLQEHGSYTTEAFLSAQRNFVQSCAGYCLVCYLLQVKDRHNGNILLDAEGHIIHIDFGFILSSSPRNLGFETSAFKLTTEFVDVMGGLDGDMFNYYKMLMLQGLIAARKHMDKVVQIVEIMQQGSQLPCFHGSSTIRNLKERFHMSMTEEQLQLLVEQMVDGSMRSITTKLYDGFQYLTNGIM

Chain of Serine/threonine-protein kinase WNK2 (Homo sapiens) (Q9Y3S1 whole entry): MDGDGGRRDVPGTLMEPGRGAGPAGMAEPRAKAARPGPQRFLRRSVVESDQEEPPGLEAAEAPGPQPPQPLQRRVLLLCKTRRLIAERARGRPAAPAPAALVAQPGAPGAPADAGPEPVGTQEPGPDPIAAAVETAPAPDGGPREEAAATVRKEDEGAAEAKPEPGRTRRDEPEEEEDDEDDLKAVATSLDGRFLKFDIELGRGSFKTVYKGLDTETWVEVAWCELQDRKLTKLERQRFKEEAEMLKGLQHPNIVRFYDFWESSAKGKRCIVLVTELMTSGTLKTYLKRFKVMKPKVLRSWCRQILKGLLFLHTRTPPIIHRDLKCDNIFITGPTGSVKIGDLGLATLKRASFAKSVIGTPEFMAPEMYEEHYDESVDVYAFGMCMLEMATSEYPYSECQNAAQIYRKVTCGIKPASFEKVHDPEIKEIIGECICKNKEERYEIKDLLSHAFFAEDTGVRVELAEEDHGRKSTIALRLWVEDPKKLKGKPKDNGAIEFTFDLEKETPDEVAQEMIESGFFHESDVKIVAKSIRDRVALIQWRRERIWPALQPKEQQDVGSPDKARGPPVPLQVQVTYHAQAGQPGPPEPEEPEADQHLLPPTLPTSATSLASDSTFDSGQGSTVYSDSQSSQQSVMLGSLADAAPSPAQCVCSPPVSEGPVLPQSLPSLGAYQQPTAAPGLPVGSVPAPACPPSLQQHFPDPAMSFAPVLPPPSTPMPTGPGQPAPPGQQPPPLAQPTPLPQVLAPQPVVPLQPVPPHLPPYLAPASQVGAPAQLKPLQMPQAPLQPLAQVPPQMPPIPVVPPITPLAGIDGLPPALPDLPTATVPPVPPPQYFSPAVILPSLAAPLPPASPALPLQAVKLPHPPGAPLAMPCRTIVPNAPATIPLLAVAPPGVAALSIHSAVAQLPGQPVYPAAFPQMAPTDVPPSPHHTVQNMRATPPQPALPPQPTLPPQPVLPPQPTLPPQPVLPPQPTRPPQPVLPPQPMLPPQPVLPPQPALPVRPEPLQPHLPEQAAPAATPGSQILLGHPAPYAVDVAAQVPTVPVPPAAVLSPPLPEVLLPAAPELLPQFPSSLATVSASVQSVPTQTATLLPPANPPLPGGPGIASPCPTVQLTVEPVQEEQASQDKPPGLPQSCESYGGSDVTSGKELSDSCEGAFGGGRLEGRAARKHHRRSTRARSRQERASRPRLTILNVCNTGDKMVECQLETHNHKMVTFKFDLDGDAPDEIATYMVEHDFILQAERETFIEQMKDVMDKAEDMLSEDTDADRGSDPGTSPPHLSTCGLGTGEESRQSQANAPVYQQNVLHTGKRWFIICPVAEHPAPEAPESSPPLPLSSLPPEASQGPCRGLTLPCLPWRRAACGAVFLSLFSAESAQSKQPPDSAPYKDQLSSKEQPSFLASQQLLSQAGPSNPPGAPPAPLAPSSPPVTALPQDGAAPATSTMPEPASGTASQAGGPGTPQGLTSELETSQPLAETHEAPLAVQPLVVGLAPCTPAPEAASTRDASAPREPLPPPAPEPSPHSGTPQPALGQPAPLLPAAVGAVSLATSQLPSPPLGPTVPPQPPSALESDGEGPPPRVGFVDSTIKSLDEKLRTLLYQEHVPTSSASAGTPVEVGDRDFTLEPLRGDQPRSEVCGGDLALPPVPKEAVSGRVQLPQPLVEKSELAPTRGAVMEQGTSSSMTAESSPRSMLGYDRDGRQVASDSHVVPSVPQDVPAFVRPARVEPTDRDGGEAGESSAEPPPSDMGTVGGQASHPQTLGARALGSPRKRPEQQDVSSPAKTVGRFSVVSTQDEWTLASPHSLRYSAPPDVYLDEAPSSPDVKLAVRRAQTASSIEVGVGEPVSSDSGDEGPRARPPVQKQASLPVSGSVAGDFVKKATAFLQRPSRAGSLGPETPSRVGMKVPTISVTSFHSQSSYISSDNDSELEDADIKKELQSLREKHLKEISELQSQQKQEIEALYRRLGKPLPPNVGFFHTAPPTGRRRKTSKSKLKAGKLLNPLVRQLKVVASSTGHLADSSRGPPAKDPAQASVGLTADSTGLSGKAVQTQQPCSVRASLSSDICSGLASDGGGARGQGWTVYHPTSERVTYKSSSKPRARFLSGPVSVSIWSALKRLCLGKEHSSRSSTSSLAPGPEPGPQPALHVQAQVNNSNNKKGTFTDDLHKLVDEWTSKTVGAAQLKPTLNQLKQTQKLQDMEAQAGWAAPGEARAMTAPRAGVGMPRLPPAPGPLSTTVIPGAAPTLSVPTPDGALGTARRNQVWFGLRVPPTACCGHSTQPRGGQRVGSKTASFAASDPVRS

`COc1cc2nc(C)nc(N[C@H](C)c3cccc(-c4cn[nH]c4)c3)c2cc1OC` showed an Activity [1] of 100%.

Work on `COc1cc2ncnc(N[C@H](C)c3cccc4ccccc34)c2cc1OC` yielded an Activity [2] of 96%, an Activity [3] of 100% and an Activity [4] of 23%. For the same compound, the Activity [5] was 79%, the Activity [6] was 74% and the Activity [7] was 85%. For the same compound, the Activity [8] was 73%, the Activity [9] was 67% and the Activity [10] was 83%.
